The assay concerns the target Human TRPA1 (Homo sapiens, UniProt O75762). Kind of assay: Alternative TRPA1 Ca2+ fluorometry assay (hTRPA1/TREx-HEK293 cells, Fluo-4, FDSS 6000). The class given is cell-based. Also on record: expressed in transfected cells. The conditions noted are these: Fluo-4-AM, agonist 6,11-dihydro-5H-dibenzo[b,e]azepine-10-carboxylic acid methyl ester 25 nM, procedure used for Examples 184, 190 to 192, 194 to 316. In short, it runs like this: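 Tetracycline-induced (50 ng/ml, 24 h) hTRPA1/TREx-HEK293 cells were loaded with Fluo-4-AM and probenecid. Compound (1% DMSO final) was added after a 12 s baseline and the Ca2+ signal followed for 14 min, then 25 nM TRPA1 agonist dibenzazepine carboxylic acid methyl ester was applied. Signal is Em540 (ex 488 nm) relative to the first baseline reading.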

Human TRPA1, sequence (O75762 whole entry): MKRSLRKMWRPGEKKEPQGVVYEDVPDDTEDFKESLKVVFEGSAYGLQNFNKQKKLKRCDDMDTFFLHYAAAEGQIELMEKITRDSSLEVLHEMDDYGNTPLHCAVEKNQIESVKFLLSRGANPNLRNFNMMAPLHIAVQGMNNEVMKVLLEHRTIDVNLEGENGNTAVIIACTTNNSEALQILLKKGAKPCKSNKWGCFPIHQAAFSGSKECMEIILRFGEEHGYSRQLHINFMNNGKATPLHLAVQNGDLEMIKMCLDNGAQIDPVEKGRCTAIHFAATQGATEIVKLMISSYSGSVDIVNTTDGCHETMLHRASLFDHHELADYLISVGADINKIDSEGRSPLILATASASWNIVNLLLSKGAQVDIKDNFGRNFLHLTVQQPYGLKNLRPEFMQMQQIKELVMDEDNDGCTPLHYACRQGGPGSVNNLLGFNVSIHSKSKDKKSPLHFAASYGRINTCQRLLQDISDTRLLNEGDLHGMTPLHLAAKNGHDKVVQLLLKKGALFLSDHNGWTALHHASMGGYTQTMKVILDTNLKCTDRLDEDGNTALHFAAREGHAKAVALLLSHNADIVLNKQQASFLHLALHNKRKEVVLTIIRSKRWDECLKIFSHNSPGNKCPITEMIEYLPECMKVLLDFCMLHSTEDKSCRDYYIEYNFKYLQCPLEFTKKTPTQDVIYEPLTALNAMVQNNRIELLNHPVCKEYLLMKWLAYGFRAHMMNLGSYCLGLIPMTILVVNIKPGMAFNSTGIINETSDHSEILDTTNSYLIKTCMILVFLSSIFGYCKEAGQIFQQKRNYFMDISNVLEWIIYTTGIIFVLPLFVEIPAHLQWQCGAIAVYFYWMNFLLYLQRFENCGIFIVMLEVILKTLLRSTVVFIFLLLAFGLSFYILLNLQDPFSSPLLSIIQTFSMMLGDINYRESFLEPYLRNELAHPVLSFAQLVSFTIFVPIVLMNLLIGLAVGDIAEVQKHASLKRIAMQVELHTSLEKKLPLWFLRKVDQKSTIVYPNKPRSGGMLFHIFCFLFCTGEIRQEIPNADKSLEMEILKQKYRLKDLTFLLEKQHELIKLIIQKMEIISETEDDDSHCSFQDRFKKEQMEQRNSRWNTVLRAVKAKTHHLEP

One may read the IC50 as the midpoint of a concentration-inhibition curve. Low values mean greater potency, high ones weaker potency. Turning to `O=C(NCc1cc(-c2ccc(C(F)(F)F)cc2)nc(NCc2cccnc2)n1)[C@@H]1CCCN1S(=O)(=O)c1ccc(F)cc1` [Example 294, 1-(4-Fluoro-benzenesulfonyl)-pyrrolidine-2S-carboxylic acid [2-[(pyridin-3-ylmethyl)-amino]-6-(4-trifluoromethyl-phenyl)-pyrimidin-4-ylmethyl]-amide], the 50% inhibitory concentration (IC50) is around 1000 nM.

Regarding `O=C(NCc1cc(-c2ccc(Br)cc2)nc(NCCc2ccccn2)n1)[C@@H]1CCCN1S(=O)(=O)c1ccc(F)cc1` [Example 295, 1-(4-Fluoro-benzenesulfonyl)-pyrrolidine-2S-carboxylic acid [6-(4-bromo-phenyl)-2-(2-pyridin-2-yl-ethylamino)-pyrimidin-4-ylmethyl]-amide], the IC50 came out at 1740 nM.

In the case of `CC1CCN(c2nc(CNC(=O)[C@@H]3CCCN3S(=O)(=O)c3ccc(F)cc3)cc(-c3ccc(Br)cc3)n2)CC1` [Example 296, 1-(4-Fluoro-benzenesulfonyl)-pyrrolidine-2S-carboxylic acid [6-(4-bromo-phenyl)-2-(4-methyl-piperidin-1-yl)-pyrimidin-4-ylmethyl]-amide], the IC50 is 4470 nM.

As for `O=C(NCc1cc(-c2ccc(C(F)(F)F)cc2)nc(N2CCN(Cc3ccc4c(c3)OCO4)CC2)n1)[C@@H]1CCCN1S(=O)(=O)c1ccc(F)cc1` [Example 297, 1-(4-Fluoro-benzenesulfonyl)-pyrrolidine-2S-carboxylic acid [2-(4-benzo[1,3]dioxol-5-ylmethyl-piperazin-1-yl)-6-(4-trifluoromethyl-phenyl)-pyrimidin-4-ylmethyl]-amide], the half-maximal inhibitory concentration (IC50) amounted to 355 nM.

`NC(=O)C1CCCN(c2nc(CNC(=O)[C@@H]3CCCN3S(=O)(=O)c3ccc(F)cc3)cc(-c3ccc(C(F)(F)F)cc3)n2)C1` (stereo partly drawn) [Example 298, 1-[4-({[1-(4-Fluoro-benzenesulfonyl)-pyrrolidine-2S-carbonyl]-amino}-methyl)-6-(4-trifluoromethyl-phenyl)-pyrimidin-2-yl]-piperidine-3-carboxylic acid amide]: the IC50 worked out at 4680 nM.

Take `O=C(NCc1cc(-c2ccc(C(F)(F)F)cc2)nc(NCCC2C=Nc3ccccc32)n1)[C@@H]1CCCN1S(=O)(=O)c1ccc(F)cc1` (stereo partly drawn) [Example 299, 1-(4-Fluoro-benzenesulfonyl)-pyrrolidine-2S-carboxylic acid [2-[2-(3H-indol-3-yl)-ethylamino]-6-(4-trifluoromethyl-phenyl)-pyrimidin-4-ylmethyl]-amide]: the half-maximal inhibitory concentration (IC50) was around 1590 nM.

Take `O=C(NCc1cc(-c2ccc(Br)cc2)nc(N2CCN(c3ccc(F)cc3)CC2)n1)[C@@H]1CCCN1S(=O)(=O)c1ccc(F)cc1` [Example 300, 1-(4-Fluoro-benzenesulfonyl)-pyrrolidine-2S-carboxylic acid {6-(4-bromo-phenyl)-2-[4-(4-fluoro-phenyl)-piperazin-1-yl]-pyrimidin-4-ylmethyl}-amide]: the IC50 was determined as 2510 nM.

For `NS(=O)(=O)c1ccc(CCNc2nc(CNC(=O)[C@@H]3CCCN3S(=O)(=O)c3ccc(F)cc3)cc(-c3ccc(Br)cc3)n2)cc1` [Example 301, 1-(4-Fluoro-benzenesulfonyl)-pyrrolidine-2S-carboxylic acid {6-(4-bromo-phenyl)-2-[2-(4-sulfamoyl-phenyl)-ethylamino]-pyrimidin-4-ylmethyl}-amide], the concentration for half-maximal inhibition (IC50) was found to be 5620 nM.

In turn, `O=C(NCc1cc(-c2ccc(Br)cc2)nc(N2CCC[C@H]2CO)n1)[C@@H]1CCCN1S(=O)(=O)c1ccc(F)cc1` [Example 302, 1-(4-Fluoro-benzenesulfonyl)-pyrrolidine-2S-carboxylic acid [6-(4-bromo-phenyl)-2-(2S-hydroxymethyl-pyrrolidin-1-yl)-pyrimidin-4-ylmethyl]-amide] had an IC50 of 8710 nM.

On to `O=C(NCc1cc(-c2ccc(C(F)(F)F)cc2)nc(N2CCc3ccccc3C2)n1)[C@@H]1CCCN1S(=O)(=O)c1ccc(F)cc1` [Example 303, 1-(4-Fluoro-benzenesulfonyl)-pyrrolidine-2S-carboxylic acid [2-(3,4-dihydro-1H-isoquinolin-2-yl)-6-(4-trifluoromethyl-phenyl)-pyrimidin-4-ylmethyl]-amide], for which the IC50 is around 2820 nM.

`O=C(NCc1cc(-c2ccc(C(F)(F)F)cc2)nc(N2CCN(c3ccc(F)cc3)CC2)n1)[C@@H]1CCCN1S(=O)(=O)c1ccc(F)cc1` [Example 304, 1-(4-Fluoro-benzenesulfonyl)-pyrrolidine-2S-carboxylic acid [2-[4-(4-fluoro-phenyl)-piperazin-1-yl]-6-(4-trifluoromethyl-phenyl)-pyrimidin-4-ylmethyl]-amide] gave an IC50 of 331 nM.

Regarding `O=C(NCc1cc(-c2ccc3c(c2)OCO3)nc(N2CCN(Cc3ccc4c(c3)OCO4)CC2)n1)[C@@H]1CCCN1S(=O)(=O)c1ccc(F)cc1` [Example 305, 1-(4-Fluoro-benzenesulfonyl)-pyrrolidine-2S-carboxylic acid [6-benzo[1,3]dioxol-5-yl-2-(4-benzo[1,3]dioxol-5-ylmethyl-piperazin-1-yl)-pyrimidin-4-ylmethyl]-amide], the 50% inhibitory concentration (IC50) is around 5890 nM.

The compound `CC1CCN(c2nc(CNC(=O)[C@@H]3CCCN3S(=O)(=O)c3ccc(F)cc3)cc(-c3ccc4c(c3)OCO4)n2)CC1` [Example 306, 1-(4-Fluoro-benzenesulfonyl)-pyrrolidine-2S-carboxylic acid [6-benzo[1,3]dioxol-5-yl-2-(4-methyl-piperidin-1-yl)-pyrimidin-4-ylmethyl]-amide] yielded an IC50 of around 2090 nM.

`O=C(NCc1cc(-c2ccc(C(F)(F)F)cc2)nc(NC2CCc3ccccc32)n1)[C@@H]1CCCN1S(=O)(=O)c1ccc(F)cc1` (stereo partly drawn) [Example 307, 1-(4-Fluoro-benzenesulfonyl)-pyrrolidine-2S-carboxylic acid [2-(indan-1-ylamino)-6-(4-trifluoromethyl-phenyl)-pyrimidin-4-ylmethyl]-amide] registered an IC50 of around 354 nM.

With `CC(C)[C@@H](CO)Nc1nc(CNC(=O)[C@@H]2CCCN2S(=O)(=O)c2ccc(F)cc2)cc(-c2ccc(C(F)(F)F)cc2)n1` [Example 308, 1-(4-Fluoro-benzenesulfonyl)-pyrrolidine-2S-carboxylic acid [2-(1-hydroxymethyl-2-methyl-propylamino)-6-(4-trifluoromethyl-phenyl)-pyrimidin-4-ylmethyl]-amide], the concentration for half-maximal inhibition (IC50) was 1780 nM.

Turning to `CC(=O)c1ccc(N2CCN(c3nc(CNC(=O)[C@@H]4CCCN4S(=O)(=O)c4ccc(F)cc4)cc(-c4ccc(C(F)(F)F)cc4)n3)CC2)cc1` [Example 309, 1-(4-Fluoro-benzenesulfonyl)-pyrrolidine-2S-carboxylic acid [2-[4-(4-acetyl-phenyl)-piperazin-1-yl]-6-(4-trifluoromethyl-phenyl)-pyrimidin-4-ylmethyl]-amide], the IC50 was found to be 1170 nM.

Turning to `CCCCNc1nc(CNC(=O)[C@@H]2CCCN2S(=O)(=O)c2ccc(F)cc2)cc(-c2ccc(C(F)(F)F)cc2)n1` [Example 310, 1-(4-Fluoro-benzenesulfonyl)-pyrrolidine-2S-carboxylic acid [2-butylamino-6-(4-trifluoromethyl-phenyl)-pyrimidin-4-ylmethyl]-amide], the concentration for half-maximal inhibition (IC50) was determined as 407 nM.

In turn, `CC(Nc1nc(CNC(=O)[C@@H]2CCCN2S(=O)(=O)c2ccc(F)cc2)cc(-c2ccc3c(c2)OCO3)n1)c1ccccc1` (stereo partly drawn) [Example 311, 1-(4-Fluoro-benzenesulfonyl)-pyrrolidine-2S-carboxylic acid [6-benzo[1,3]dioxol-5-yl-2-(1-phenyl-ethylamino)-pyrimidin-4-ylmethyl]-amide] returned a 50% inhibitory concentration (IC50) of around 1510 nM.

The record behind these values is US8614201B2 (Janssen Pharmaceutica NV, priority 2009, dated 2013).
